The values that follow are results of earlier work, collected in US20050090549A1, “Intrathecal gabapentin for treatment of pain” (Medtronic, Inc., priority 2003, published 2005).

For the data set the following is noted: in water and in both basic and acidic aqueous solutions.

For `NCC1(CC(=O)O)CCCCC1` [1-(aminomethyl)cyclohexane acetic acid], the solubility result is listed as “freely soluble”.
